Data on two compounds can be found in PMC8143291, “Cytotoxicity and Microbicidal Activity of Commonly Used Organic Solvents: A Comparative Study and Application to a Standardized Extract from Vaccinium macrocarpon” (Toxics, 2021).

The test system of experiment [1] is A-375 (malignant melanoma). Description: MTT dye-reduction cytotoxicity assay (ISO 10993-5). Type of experiment: cell-based, human. Particulars: solvent alone, n = 3. From the text:
The cell lines utilized in this study included the human tumor lines A-375 (malignant melanoma) and A-431 (non-melanoma epidermoid squamous skin carcinoma) as well as the models for non-tumorigenic cells—HaCaT (immortalized human keratinocytes) and CCL-1^TM (transformed mouse fibroblasts, NCTC clone 929). The first three cell lines were obtained from CLS Cell Lines Service (GmbH, Eppelheim, Germany). CCL-1^TM was purchased from the American Type Culture Collection (ATCC, Manassas, VA, USA). Cells were maintained in a controlled environment—sterile cell culture flasks in a CO2 incubator Panasonic MCO-18AC (Panasonic Healthcare co., ltd, Oizumi-Machi, Japan) at 37 °C and a humidified atmosphere containing 5% CO2. CCL-1 was cultured in MEM with 10% heat-inactivated horse serum and 2 mM L-glutamine, and the cell culture medium for the rest of the cell lines was DMEM-HG with 4.5 g/L glucose with the addition of 10% heat-inactivated fetal bovine serum and 4 mM L-glutamine. Pen/strep (concentration of penicillin G sodium 10^5 Units/L and of streptomycin sulfate 100 mg/L) was added to both culture media. The cell lines were maintained as an adherent monolayer in a log phase. The cells were sub-cultivated about 1–3 times per week after the monolayer reached 80–90% confluence. The medium was removed from the flask, and the cell monolayer was washed with 3–5 mL PBS. The cells were incubated with 0.05% EDTA in PBS for 8–10 min, followed by the next step where all cell lines were subjected to enzyme cell detachment. HaCaT and CCL-1 monolayers were detached with 1 mL solution of trypsin/EDTA (0.1%/0.05% for HaCaT and 0.25% (w/v)/0.53 mM for CCL-1) and incubated for 2–5 min at 37 °C (for HaCaT) or at room temperature (for CCL-1 cells), whereas Accutase® was used for A-375 and A-431 lines. The incubation lasted until the separation and dispersion of the cells in the monolayer were observed using light microscopy. In the end, all cell lines were resuspended in 10 mL medium and centrifuged for 3 min at 300× g. The cell pellet was resuspended in fresh medium and sub-cultivated at a seeding density of 1.0 × 10^4 cells/cm^2.
The MTT test was performed in order to determine the median inhibitory (IC50) and MTC concentrations of the solvents and PAC according to Annex C, ISO 10993-5 [2, 21]. Briefly, 100 µL of the cell suspension (1 × 10^5 cells/mL) were seeded per well in 96-well plates with a flat bottom. The cells were incubated for 24 h, allowing them to enter the log phase of their growth. On the 24th hour, the cells were treated with the solvents or CystiCran® solutions in concentrations ranging between 0.004% and 2% volume fraction (v/v) and incubated further for 72 h. The incubation periods are following the recommendations of the FDA guide for the use of ISO 10993-1 [1]. At the end of the incubation period, 10 µL of an MTT solution (5 mg/mL) were added to each well, and the plates were kept at 37 °C for 2 hours. Thereafter, the medium was aspirated, and the formed formazan crystals were dissolved in 100 μL/well of 2-propanol supplemented with 5% formic acid. The same solvent was used as a blank. […] The absorption was measured at 540 nm (reference filter at 690 nm) on a microplate reader ELx800 (BioTek Instruments, Inc., Winooski, VT, Winooski, VT, USA).
The IC50 values from the MTT assay were evaluated with a non-linear regression analysis (Curve fit, GraphPad Prizm 6.01 software, GraphPad Software Inc., San Diego, CA, USA) using sigmoidal concentration–response curves. […]
(Formazan colour is commonly taken as a measure of viable cells.)

The subject of experiment [2] is breast cancer, mouse macrophage and human umbilical vein endothelial cells. Also noted: method as in doi:10.17795/ajmb-33453. Particulars: cited from earlier work.
Experiment [3] concerns Y. enterocolitica IP 864 O: 3. Description: Dehydrogenase activity (DEHA) MTT test after BMD. The experiment is classed as cell-based, Yersinia enterocolitica. Conditions: 24 h exposure; % against untreated control; ± SD; n = 3. How it is done:
(§1) The cell dehydrogenase (DEHA, redox, metabolic) activity of all samples was measured at the end of the BMD assay, based on reducing the MTT dye to formazan by the membrane located bacterial enzyme NADH: ubiquinone reductase (H^+-translocation). The protocol of Wang et al. was applied after minor modifications. Briefly, each sample was incubated for 120 min at 37 °C with MTT at a final concentration of 0.5 mg/mL in the culture medium. The resulting non-soluble violet formazan crystals were dissolved with an equal volume of 2-propanol supplemented with 5% formic acid. The absorbance was measured at 550 nm against a blank solution containing the respective volumes of MHB and MTT.
The IC50 values from the MTT assay were evaluated with a non-linear regression analysis (Curve fit, GraphPad Prizm 6.01 software, GraphPad Software Inc., San Diego, CA, USA) using sigmoidal concentration–response curves. The cell viability is presented as a percentage of the untreated control. At least four wells were seeded for every concentration. Three independent assays were performed (n = 3). The maximum tolerated concentration (MTC) for the cell lines was determined from three independent assays according to ISO 10993-5 as the maximum concentration at which at least 70% of the cells were viable (nonlin fit, range, GraphPad Prizm 6.01 software) GraphPad Software Inc., San Diego, CA, USA). To compare the MTC values of the solvents for each cell line, the ordinary One-way ANOVA statistical analysis based on Tukey’s multiple comparisons test with a single pooled variance (GraphPad Prizm 6.01 software) GraphPad Software Inc., San Diego, CA, USA) was utilized, and p ≤ 0.05 was set as a significance level. The respiratory activity of the bacterial cultures was calculated as a percentage against the untreated control.

Another experiment concerns E. coli ATCC 35218. In words: Dehydrogenase activity (DEHA) MTT test after BMD. Type of experiment: cell-based, Escherichia coli. Conditions: in MHB; 24 h exposure; % against untreated control; ± SD; n = 3. How it is done: as §1
The IC50 values from the MTT assay were evaluated with a non-linear regression analysis (Curve fit, GraphPad Prizm 6.01 software, GraphPad Software Inc., San Diego, CA, USA) using sigmoidal concentration–response curves. The cell viability is presented as a percentage of the untreated control. […] The maximum tolerated concentration (MTC) for the cell lines was determined from three independent assays according to ISO 10993-5 as the maximum concentration at which at least 70% of the cells were viable (nonlin fit, range, GraphPad Prizm 6.01 software) GraphPad Software Inc., San Diego, CA, USA). […] The respiratory activity of the bacterial cultures was calculated as a percentage against the untreated control.

In another experiment the test system is S. Aureus ATCC 29213. In words: Dehydrogenase activity (DEHA) MTT test after BMD. The experiment is classed as cell-based, Staphylococcus aureus. Conditions: 24 h exposure; % against untreated control; ± SD; n = 3. How it is done: as §1
The cell viability is presented as a percentage of the untreated control. At least four wells were seeded for every concentration. Three independent assays were performed (n = 3). […] The respiratory activity of the bacterial cultures was calculated as a percentage against the untreated control.

For `CCO` [EtOH, ethanol], the “MTC (maximum tolerated concentration)” value in experiment [1] (72 h, at least 70% of cells viable) is given as > 2 % (v/v). In addition, the “IC50 (CI 95%)” value in experiment [1] (72 h incubation) is > 2 % (v/v). In addition, in experiment [2], the “maximum tolerated concentration (MTC) / applicable concentration” value is on record as “up to 0.5 % v/v”.
Turning to `C[S+](C)[O-]` [DMSO, dimethyl sulfoxide], the results for the “DEHA (dehydrogenase activity)” value (in experiment [3]; in the experiment with E. coli ATCC 35218; with S. Aureus ATCC 29213) were 19.13 ± 0.17%, 13.02% and 12.29 ± 0.04%, respectively.
